In patent publication US11045464B2, “Parenteral formulations of dopamine agonists” (VeroScience LLC, priority 2007, dated 2021):

Test: Stability of SKF-38393 in solution
Assay type: physicochemical
Excerpt: Formulation 22S was a combination of […], employing the 11S base formulation with the two active agents. […] A short study has been run to ensure the stability of SKF-38393. […] In contrast, in alcohol solution, the API decomposes rapidly, with >5% of the API already lost within the first hour.

API lost (decomposition) (in alcohol solution, within the first hour): > 5%
decomposition of SKF-38393 (in water buffered by the acidic acid, within 12 h): no decomposition
Structure (SMILES): Oc1cc2c(cc1O)C(c1ccccc1)CNCC2 (centres unmarked) [SKF-38393]
